According to patent US9963448B2, “Bicyclic inhibitors of PAD4” (Padlock Therapeutics, Inc., priority 2015, dated 2018):
Counter-ions that a name gives are not always drawn. Like-named read-outs stand apart in the source and are kept apart here.

Legend:
[1] = biological target: hPAD4 (Homo sapiens, UniProt Q9UM07); test: hPAD4 RFMS (RapidFire mass spectrometry) PAD4 inhibition assay; type: biochemical; conditions: hPAD4 enzyme, RFMS readout;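 for hPAD4 RFMS pIC50: grade E means pIC50 at most 4 and F means pIC50 4.0 to 5.0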
Sequence of hPAD4 (Q9UM07 whole entry): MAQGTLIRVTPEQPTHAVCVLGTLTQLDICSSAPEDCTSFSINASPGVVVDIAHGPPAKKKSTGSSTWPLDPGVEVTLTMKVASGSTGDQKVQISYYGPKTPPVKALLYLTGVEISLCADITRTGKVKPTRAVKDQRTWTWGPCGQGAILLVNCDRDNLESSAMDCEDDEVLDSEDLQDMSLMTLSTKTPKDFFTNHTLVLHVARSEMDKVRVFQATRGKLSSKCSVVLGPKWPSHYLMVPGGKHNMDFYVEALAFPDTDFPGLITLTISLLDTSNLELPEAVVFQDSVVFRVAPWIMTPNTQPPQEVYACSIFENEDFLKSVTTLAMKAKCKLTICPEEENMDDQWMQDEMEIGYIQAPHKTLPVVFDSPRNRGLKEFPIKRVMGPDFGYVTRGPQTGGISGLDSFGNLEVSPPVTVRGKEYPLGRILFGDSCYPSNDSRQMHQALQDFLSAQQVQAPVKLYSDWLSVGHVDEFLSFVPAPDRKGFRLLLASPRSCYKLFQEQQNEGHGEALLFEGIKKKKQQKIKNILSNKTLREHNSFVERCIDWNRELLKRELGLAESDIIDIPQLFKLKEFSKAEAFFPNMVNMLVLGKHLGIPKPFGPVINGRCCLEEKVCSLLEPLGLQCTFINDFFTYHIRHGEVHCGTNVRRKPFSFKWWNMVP
Method: (§1) Compounds of the present invention were assayed as inhibitors of PAD4 using the assay protocol described below.
(§2) Compound stock solutions were stored at RT. […] Final assay conditions were as follows:
(§3) Total incubation time: 65 mins at 37° C.
(§4) Stop solution: 40 μl 5% TCA in ACN
(§5) The compound numbers correspond to the compound numbers in Table 1. […] The term pIC50=−log(IC50). […] “NA” stands for “not assayed.”

[2] = biological target: mPAD4 (Mus musculus, UniProt Q9Z183); test: mPAD4 RFMS PAD4 inhibition assay; type: biochemical; conditions: mPAD4, RFMS readout;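 for mPAD4 RFMS pIC50: grade E means pIC50 at most 4 and F means pIC50 4.0 to 5.0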
Sequence of mPAD4 (Q9Z183 whole entry): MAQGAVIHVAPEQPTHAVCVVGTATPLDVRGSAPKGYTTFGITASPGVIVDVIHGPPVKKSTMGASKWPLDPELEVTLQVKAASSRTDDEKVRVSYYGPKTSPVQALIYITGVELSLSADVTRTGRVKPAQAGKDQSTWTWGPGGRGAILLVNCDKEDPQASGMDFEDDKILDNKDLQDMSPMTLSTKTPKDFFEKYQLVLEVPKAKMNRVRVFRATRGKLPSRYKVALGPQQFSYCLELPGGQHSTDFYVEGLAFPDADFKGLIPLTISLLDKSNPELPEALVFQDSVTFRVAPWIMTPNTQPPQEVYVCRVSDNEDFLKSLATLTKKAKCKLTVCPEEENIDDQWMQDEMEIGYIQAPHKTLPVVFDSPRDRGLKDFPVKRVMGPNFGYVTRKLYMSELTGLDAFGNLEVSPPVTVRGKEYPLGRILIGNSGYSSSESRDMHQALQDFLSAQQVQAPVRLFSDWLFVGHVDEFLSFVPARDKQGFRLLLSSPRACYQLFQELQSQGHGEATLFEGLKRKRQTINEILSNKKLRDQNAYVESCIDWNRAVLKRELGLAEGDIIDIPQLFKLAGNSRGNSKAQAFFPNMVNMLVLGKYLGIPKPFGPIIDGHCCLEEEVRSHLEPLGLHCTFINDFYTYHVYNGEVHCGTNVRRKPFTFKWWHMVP
Method: as §1, §2, §3, §4, §5

[3] = pIC50=−log(IC50), read-out: hPAD4 RFMS pIC50 (converted)
[4] = pIC50=−log(IC50), read-out: mPAD4 RFMS pIC50 (converted)

| SMILES | IC50 [1, 3] [nM] | IC50 ([1]; read-out: hPAD4 RFMS IC50) [nM] | IC50 [2, 4] [nM] | IC50 ([2]; read-out: mPAD4 RFMS IC50) [nM] | hPAD4 RFMS pIC50 ([1]; pIC50=−log(IC50)) | mPAD4 RFMS pIC50 ([2]; pIC50=−log(IC50)) |
| --- | --- | --- | --- | --- | --- | --- |
| COc1cc(C(=O)N2CCC[C@@H](N)C2)cc2nc(-c3cc4cccnc4n3[C@@H](C)C3CC3)n(C)c12 [Compound I-102, (3R)-1-(2-{1-[(1S)-1-cyclopropylethyl]-1H-pyrrolo[2,3-b]pyridin-2-yl}-7-methoxy-1-methyl-1H-1,3-benzodiazole-5-carbonyl)piperidin-3-amine] | 1000 to 10000 | < 1000 | 1000 to 10000 | 1000 to 5000 | – | – |
| Cc1cc2c(cc1C(=O)N1CCC[C@@H](N)C1)nc(-c1cc3cccnc3n1CC1CC1)n2C [Compound I-103, (3R)-1-{2-[1-(cyclopropylmethyl)-1H-pyrrolo[2,3-b]pyridin-2-yl]-1,6-dimethyl-1H-1,3-benzodiazole-5-carbonyl}piperidin-3-amine hydrochloride] | 10000 to 100000 | > 10000 | 10000 to 100000 | > 10000 | – | – |
| COc1ccc2cc(-c3nc4cc(C(=O)N5CCC[C@@H](N)C5)cc(OC(F)F)c4n3C)n(CC3CC3)c2n1 [Compound I-104, (3R)-1-{2-[1-(cyclopropylmethyl)-6-methoxy-1H-pyrrolo[2,3-b]pyridin-2-yl]-7-(difluoromethoxy)-1-methyl-1H-1,3-benzodiazole-5-carbonyl}piperidin-3-amine] | < 1000 | < 1000 | < 1000 | < 1000 | – | – |
| CCc1ccc2cc(-c3nc4cc(C(=O)N5CCC[C@@H](N)C5)cc(OC)c4n3CC)n(CC3CC3)c2n1 [Compound I-105, (3R)-1-{2-[1-(cyclopropylmethyl)-6-ethyl-1H-pyrrolo[2,3-b]pyridin-2-yl]-1-ethyl-7-methoxy-1H-1,3-benzodiazole-5-carbonyl}piperidin-3-amine] | < 1000 | < 1000 | < 1000 | < 1000 | – | – |
| CCn1c(-c2cc3ccc(OC)nc3n2CC2CC2)nc2cc(C(=O)N3CCC[C@@H](N)C3)cc(OC)c21 [Compound I-106] | < 1000 | < 1000 | < 1000 | < 1000 | – | – |
| COc1cc(C(=O)N2CC[C@]3(CNCCC3(F)F)C2)cc2nc(-c3cc4cccnc4n3CC3CC3)n(C)c12 [Compound I-107] | 10000 to 100000 | > 10000 | 10000 to 100000 | > 10000 | – | – |
| COc1cc(C(=O)N2CC[C@@]3(CNCCC3(F)F)C2)cc2nc(-c3cc4cccnc4n3CC3CC3)n(C)c12 [Compound I-108] | 10000 to 100000 | > 10000 | 10000 to 100000 | > 10000 | – | – |
| COc1ccc2cc(-c3nc4cc(C(=O)N5C[C@H](N)C[C@@H](F)C5)cc(OC(F)F)c4n3C)n(CC3CC3)c2n1 [Compound I-109, (3R,5R)-1-{2-[1-(cyclopropylmethyl)-6-methoxy-1H-pyrrolo[2,3-b]pyridin-2-yl]-7-(difluoromethoxy)-1-methyl-1H-1,3-benzodiazole-5-carbonyl}-5-fluoropiperidin-3-amine] | < 1000 | < 1000 | < 1000 | < 1000 | – | – |
| Cn1c(-c2cc3cccnc3n2CC2CC(C)(O)C2)nc2cc(C(=O)N3CCC[C@@H](N)C3)ccc21 (stereo partly drawn) [Compound I-110, 3-[(2-{5-[(3R)-3-Aminopiperidine-1-carbonyl]-1-methyl-1H-1,3-benzodiazol-2-yl}-1H-pyrrolo[2,3-b]pyridin-1-yl)methyl]-1-methylcyclobutan-1-ol] | 1000 to 10000 | 1000 to 5000 | 10000 to 100000 | > 10000 | – | – |
| CCOc1cc(C(=O)N2CC(N)CCC2C)cc2nc(-c3cc4cccnc4n3CC3CC3)n(C)c12 (centres unmarked) [Compound I-111] | 1000 to 10000 | 1000 to 5000 | < 1000 | < 1000 | – | – |
| Cn1c(-c2cc3cccnc3n2CC2CC2)nc2cc(C(=O)N3CCC[C@@H](N)C3)cc(C(N)=O)c21 [Compound I-112, 5-[(3R)-3-aminopiperidine-1-carbonyl]-2-[1-(cyclopropylmethyl)-1H-pyrrolo[2,3-b]pyridin-2-yl]-1-methyl-1H-1,3-benzodiazole-7-carboxamide hydrochloride] | 1000 to 10000 | 5000 to 10000 | 1000 to 10000 | 1000 to 5000 | – | – |
| COc1cc(C(=O)N2CCC[C@@H](N)C2)cc2nc(-c3cc4cccnc4n3CC3CC(C)(O)C3)n(C)c12 (some centres unmarked) [Compound I-113] | 1000 to 10000 | 1000 to 5000 | 1000 to 10000 | 5000 to 10000 | – | – |
| COc1cc(C(=O)N2CCC[C@@H](N)C2)cc2nc(-c3cc4cccnc4n3CC3CC3)n(CC3CC(C)(O)C3)c12 (some centres unmarked) [Compound I-114] | < 1000 | < 1000 | < 1000 | < 1000 | – | – |
| COc1cc(C(=O)N2CC3CCC2C(N)C3)cc2nc(-c3cc4cccnc4n3CC3CC3)n(C)c12 (centres unmarked) [Compound I-115] | < 1000 | < 1000 | < 1000 | < 1000 | – | – |
| CCn1c(-c2cc3cccnc3n2CC2CC2)nc2cc(C(=O)N3CCC[C@@H](N)C3)cc(OC)c21 [Compound I-119, (3R)-1-{2-[1-(cyclopropylmethyl)-1H-pyrrolo[2,3-b]pyridin-2-yl]-1-ethyl-7-methoxy-1H-1,3-benzodiazole-5-carbonyl}piperidin-3-amine] | < 1000 | < 1000 | < 1000 | < 1000 | – | – |
| COc1cc(C(=O)N2CC[C@@H](OC)[C@@H](N)C2)cc2nc(-c3cc4cccnc4n3CC3CC3)n(C)c12 [Compound I-121] | < 1000 | < 1000 | < 1000 | < 1000 | – | – |

| SMILES | IC50 [1, 3] [nM] | IC50 ([1]; read-out: hPAD4 RFMS IC50) [nM] | IC50 [2, 4] [nM] | IC50 ([2]; read-out: mPAD4 RFMS IC50) [nM] | hPAD4 RFMS pIC50 ([1]; pIC50=−log(IC50)) | mPAD4 RFMS pIC50 ([2]; pIC50=−log(IC50)) |
| --- | --- | --- | --- | --- | --- | --- |
| COc1cc(C(=O)N2CCOC3(CNC3)C2)cc2nc(-c3cc4cccnc4n3CC3CC3)n(C)c12 [Compound I-122] | – | > 10000 | > 100000 | > 10000 | E/F | – |
| COc1ccc2cc(-c3nc4cc(C(=O)N5C[C@H](N)C[C@@H](F)C5)cc(OC)c4n3C)n(CC3CC3)c2n1 [Compound I-123] | < 1000 | < 1000 | < 1000 | < 1000 | – | – |
| CO[C@@H]1CCN(C(=O)c2cc(OC(F)F)c3c(c2)nc(-c2cc4cccnc4n2CC2CC2)n3C)C[C@@H]1N [Compound I-124] | 10000 to 100000 | > 10000 | 1000 to 10000 | 5000 to 10000 | – | – |
| COc1cc(C(=O)N2C[C@H]3COC[C@@]3(CN)C2)cc2nc(-c3cc4cccnc4n3CC3CC3)n(C)c12 [Compound I-125] | 10000 to 100000 | > 10000 | 10000 to 100000 | > 10000 | – | – |
| COc1cc(C(=O)N2C[C@@H]3COC[C@]3(CN)C2)cc2nc(-c3cc4cccnc4n3CC3CC3)n(C)c12 [Compound I-126] | 10000 to 100000 | > 10000 | 10000 to 100000 | > 10000 | – | – |
| COc1ccc2cc(-c3nc4cc(C(=O)N5CC[C@@H](OC)[C@@H](N)C5)ccc4n3C)n(CC3CC3)c2n1 [Compound I-127] | 1000 to 10000 | 1000 to 5000 | 1000 to 10000 | 1000 to 5000 | – | – |
| Cn1c(-c2cc3cccnc3n2CC2CC2)nc2cc(C(=O)N3CCC[C@@H](N)C3)cc(CO)c21 [Compound I-128, {5-[(3R)-3-aminopiperidine-1-carbonyl]-2-[1-(cyclopropylmethyl)-1H-pyrrolo[2,3-b]pyridin-2-yl]-1-methyl-1H-1,3-benzodiazol-7-yl}methanol] | 1000 to 10000 | 1000 to 5000 | 1000 to 10000 | 1000 to 5000 | – | – |
| COc1cc(C(=O)N2CC3CCC2C(N)C3)cc2nc(-c3cc4cccnc4n3CC3CC3)n(C)c12 (centres unmarked) [Compound I-129] | 1000 to 10000 | 1000 to 5000 | 1000 to 10000 | 1000 to 5000 | – | – |
| COc1ccc2cc(-c3nc4cc(C(=O)N5CC[C@H](OC)[C@H](N)C5)ccc4n3C)n(CC3CC3)c2n1 [Compound I-130] | < 1000 | < 1000 | 1000 to 10000 | 1000 to 5000 | – | – |
| Cn1c(-c2cc3cccnc3n2CC2CC2)nc2cc(C(=O)N3CCC[C@@H](N)C3)cc(S(C)(=O)=O)c21 [Compound I-131, (3R)-1-{2-[1-(cyclopropylmethyl)-1H-pyrrolo[2,3-b]pyridin-2-yl]-7-methanesulfonyl-1-methyl-1H-1,3-benzodiazole-5-carbonyl}piperidin-3-amine] | 1000 to 10000 | 5000 to 10000 | 10000 to 100000 | > 10000 | – | – |
| COc1cc(C(=O)N2CCC[C@@H](N)C2)cc2nc(-c3cc4cc(C#N)cnc4n3CC3CC3)n(C)c12 [Compound I-132] | < 1000 | < 1000 | 1000 to 10000 | 1000 to 5000 | – | – |
| CO[C@@H]1CCN(C(=O)c2cc(OC(F)F)c3c(c2)nc(-c2cc4cccnc4n2CC2CC2)n3C)C[C@@H]1N [Compound I-133] | – | > 10000 | – | 1000 to 5000 | F (pIC50 of 4.0-5.0) | G (pIC50 of 5.0-6.0) |
| CO[C@H]1CCN(C(=O)c2cc(OC(F)F)c3c(c2)nc(-c2cc4cccnc4n2CC2CC2)n3C)C[C@H]1N [Compound I-134] | 1000 to 10000 | 1000 to 5000 | < 1000 | < 1000 | – | – |
| CCn1c(-c2nc3cc(C(=O)N4CCC[C@@H](N)C4)cc(OC)c3n2C)cc2ccc(OC)nc21 [Compound I-135] | < 1000 | < 1000 | < 1000 | < 1000 | – | – |
| COCCn1c(-c2nc3cc(C(=O)N4CCC[C@@H](N)C4)cc(OC)c3n2C)cc2cccnc21 [Compound I-137] | 1000 to 10000 | 1000 to 5000 | 1000 to 10000 | 1000 to 5000 | – | – |
| CCn1c(-c2nc3cc(C(=O)N4C[C@@H](N)CC[C@H]4C)cc(OC)c3n2C)cc2cccnc21 [Compound I-138] | < 1000 | < 1000 | < 1000 | < 1000 | – | – |
